Test results taken from PubChem BioAssay (NCI).
In brackets after ≈: the same amount, converted by molar mass.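 Assay format: 96-well plates, 48-hour exposure. GI50 marks 50% less growth. At the TGI there is no net growth.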 Non-standard residues stand in square brackets, D forms with d. Residues, ends and D or L forms follow the SMILES beside them. *: point of attachment. ONb = O=[N+]([O-])c1ccc(CO*)cc1; AllylGly = C=CC[CH](N)C(=O)O; Boc = CC(C)(C)OC(=O)*

Legend:
Test in all cases: NCI-60 cell line screen, 48 h
SK-OV-3 ovarian = system: SK-OV-3 ovarian
EKVX NSCLC = system: EKVX NSCLC
HS 578T breast = system: HS 578T breast
HCC-2998 colon = system: HCC-2998 colon
786-0 renal = system: 786-0 renal
OVCAR-4 ovarian = system: OVCAR-4 ovarian
UO-31 renal = system: UO-31 renal
SF-295 CNS = system: SF-295 CNS
SR leukemia = system: SR leukemia
UACC-257 melanoma = system: UACC-257 melanoma
MDA-MB-231 breast = system: MDA-MB-231 breast
NCI-H522 lung = system: NCI-H522 lung
HL-60(TB) leukemia = system: HL-60(TB) leukemia
SF-539 CNS = system: SF-539 CNS
M14 melanoma = system: M14 melanoma
SN12C renal = system: SN12C renal
OVCAR-5 ovarian = system: OVCAR-5 ovarian
NCI-H460 lung = system: NCI-H460 lung
MALME-3M melanoma = system: MALME-3M melanoma
OVCAR-3 ovarian = system: OVCAR-3 ovarian
K-562 leukemia = system: K-562 leukemia
SF-268 CNS = system: SF-268 CNS
SNB-75 CNS = system: SNB-75 CNS
SK-MEL-2 melanoma = system: SK-MEL-2 melanoma
HOP-92 NSCLC = system: HOP-92 NSCLC
SK-MEL-28 melanoma = system: SK-MEL-28 melanoma
A549 NSCLC = system: A549 NSCLC
CAKI-1 renal = system: CAKI-1 renal
RPMI-8226 leukemia = system: RPMI-8226 leukemia
A498 renal = system: A498 renal
UACC-62 melanoma = system: UACC-62 melanoma
CCRF-CEM leukemia = system: CCRF-CEM leukemia
NCI-H23 lung = system: NCI-H23 lung
ACHN renal = system: ACHN renal
TK-10 renal = system: TK-10 renal
OVCAR-8 ovarian = system: OVCAR-8 ovarian
U251 CNS = system: U251 CNS
SW-620 colon = system: SW-620 colon
T-47D breast = system: T-47D breast
COLO 205 colon = system: COLO 205 colon
IGROV1 ovarian = system: IGROV1 ovarian
LOX IMVI melanoma = system: LOX IMVI melanoma

C=CCC(NC(=O)OC(C)(C)C)C(=O)NC(CCC(=O)OCc1ccc([N+](=O)[O-])cc1)C(N)=O (configuration not stated) (Boc-[AllylGly]-Glu(ONb)-NH2; configuration not given here)
GI50 (SK-OV-3 ovarian): 24.6 µg/mL (≈ 51.5 µM) | TGI (SK-OV-3 ovarian): 66.3 µg/mL (≈ 138 µM) | GI50 (EKVX NSCLC): 22.8 µg/mL (≈ 47.6 µM) | TGI (EKVX NSCLC): 61.7 µg/mL (≈ 129 µM) | GI50 (HS 578T breast): 19.8 µg/mL (≈ 41.3 µM) | TGI (HS 578T breast): 45.5 µg/mL (≈ 95.2 µM) | GI50 (HCC-2998 colon): 19.2 µg/mL (≈ 40.1 µM) | TGI (HCC-2998 colon): 43.7 µg/mL (≈ 91.3 µM) | GI50 (786-0 renal): 21.9 µg/mL (≈ 45.8 µM) | TGI (786-0 renal): 52 µg/mL (≈ 109 µM) | GI50 (OVCAR-4 ovarian): 87.2 µg/mL (≈ 182 µM) | GI50 (UO-31 renal): 19.7 µg/mL (≈ 41.1 µM) | TGI (UO-31 renal): 38.5 µg/mL (≈ 80.4 µM) | GI50 (SF-295 CNS): 16.9 µg/mL (≈ 35.2 µM) | TGI (SF-295 CNS): 37.9 µg/mL (≈ 79.1 µM) | GI50 (SR leukemia): 47.8 µg/mL (≈ 99.8 µM) | GI50 (UACC-257 melanoma): 16.2 µg/mL (≈ 33.8 µM) | TGI (UACC-257 melanoma): 31.7 µg/mL (≈ 66.3 µM) | GI50 (MDA-MB-231 breast): 93 µg/mL (≈ 194 µM) | GI50 (NCI-H522 lung): 28.1 µg/mL (≈ 58.8 µM) | GI50 (HL-60(TB) leukemia): 53.1 µg/mL (≈ 111 µM) | GI50 (SF-539 CNS): 20.6 µg/mL (≈ 43 µM) | TGI (SF-539 CNS): 37.6 µg/mL (≈ 78.5 µM) | GI50 (M14 melanoma): 33 µg/mL (≈ 69.1 µM) | GI50 (SN12C renal): 57.5 µg/mL (≈ 120 µM) | GI50 (OVCAR-5 ovarian): 64.1 µg/mL (≈ 134 µM) | GI50 (NCI-H460 lung): 24.7 µg/mL (≈ 51.6 µM) | TGI (NCI-H460 lung): 49.8 µg/mL (≈ 104 µM) | GI50 (MALME-3M melanoma): 18.4 µg/mL (≈ 38.5 µM) | TGI (MALME-3M melanoma): 33.1 µg/mL (≈ 69.1 µM) | GI50 (OVCAR-3 ovarian): 26.3 µg/mL (≈ 55.1 µM) | TGI (OVCAR-3 ovarian): 90.1 µg/mL (≈ 188 µM) | GI50 (K-562 leukemia): 18.2 µg/mL (≈ 38 µM) | TGI (K-562 leukemia): 65.5 µg/mL (≈ 137 µM) | GI50 (SF-268 CNS): 21.8 µg/mL (≈ 45.5 µM) | TGI (SF-268 CNS): 49.7 µg/mL (≈ 104 µM) | GI50 (SNB-75 CNS): 21.4 µg/mL (≈ 44.8 µM) | TGI (SNB-75 CNS): 51.5 µg/mL (≈ 108 µM) | GI50 (SK-MEL-2 melanoma): 26.5 µg/mL (≈ 55.4 µM) | TGI (SK-MEL-2 melanoma): 68.8 µg/mL (≈ 144 µM) | GI50 (HOP-92 NSCLC): 13.3 µg/mL (≈ 27.7 µM) | TGI (HOP-92 NSCLC): 26.5 µg/mL (≈ 55.4 µM) | GI50 (SK-MEL-28 melanoma): 16.3 µg/mL (≈ 34.2 µM) | TGI (SK-MEL-28 melanoma): 30.9 µg/mL (≈ 64.6 µM) | GI50 (A549 NSCLC): 52.3 µg/mL (≈ 109 µM) | GI50 (CAKI-1 renal): 19.1 µg/mL (≈ 40 µM) | TGI (CAKI-1 renal): 54.5 µg/mL (≈ 114 µM) | GI50 (RPMI-8226 leukemia): 26.7 µg/mL (≈ 55.7 µM) | TGI (RPMI-8226 leukemia): 77.6 µg/mL (≈ 162 µM) | GI50 (A498 renal): 13.4 µg/mL (≈ 28 µM) | TGI (A498 renal): 27.9 µg/mL (≈ 58.4 µM) | GI50 (UACC-62 melanoma): 19.5 µg/mL (≈ 40.7 µM) | TGI (UACC-62 melanoma): 38.9 µg/mL (≈ 81.2 µM) | GI50 (CCRF-CEM leukemia): 31.8 µg/mL (≈ 66.5 µM) | GI50 (NCI-H23 lung): 29.6 µg/mL (≈ 61.9 µM) | TGI (NCI-H23 lung): 91.8 µg/mL (≈ 192 µM) | GI50 (ACHN renal): 18.1 µg/mL (≈ 37.9 µM) | TGI (ACHN renal): 33.3 µg/mL (≈ 69.5 µM) | GI50 (TK-10 renal): 34.3 µg/mL (≈ 71.6 µM) | GI50 (OVCAR-8 ovarian): 35.8 µg/mL (≈ 74.8 µM) | GI50 (U251 CNS): 65.2 µg/mL (≈ 136 µM) | GI50 (SW-620 colon): 95.9 µg/mL (≈ 200 µM) | GI50 (T-47D breast): 77 µg/mL (≈ 161 µM) | GI50 (COLO 205 colon): 22.9 µg/mL (≈ 47.9 µM) | TGI (COLO 205 colon): 53.1 µg/mL (≈ 111 µM) | GI50 (IGROV1 ovarian): 34.1 µg/mL (≈ 71.3 µM) | GI50 (LOX IMVI melanoma): 49 µg/mL (≈ 102 µM)
